The record followed here is PMC12406255, “Engineering Peptide Modulators for T‑Cell Migration by Structural Scaffold Matching” (Journal of Medicinal Chemistry, 2025).

The subject of one data set is CD3+ lymphocytes. Kind of data set: cells. The class given is cell-based, human. The following applies: for % Inhibition of cell migration compared to control, CD3+: normalized to untreated control, mean ± SEM of 4-6 experiments. How it is done: 1 Transwell-based migration assay to study lymphocyte transendothelial migration. (A) The general principle of the transwell migration assay is depicted. Endothelial cells (EC) are seeded in transwell inserts and are incubated for 2 days to form an EC monolayer. On the day before the assay, the ECs are cytokine-stimulated to induce the expression of adhesion molecules. In the migration assay, human peripheral blood mononuclear cells (PBMC) are placed into the donor compartment of the transwell setup. After 4 h of incubation time, the migrated cells are harvested from the receiver compartment, stained with fluorescent antibodies and counted using flow cytometry. (B) PBMCs were preincubated with S1P for 1.5 h and then transferred into the donor compartment on top of the EC monolayer. […] Data are shown as mean ± SD of 3 to 5 independent experiments.
(§1) Transwell migration assays were performed similarly as published previously. HMEC-1 cells were seeded at a density of 75,000 cells per well in transwell inserts. Three days after cell seeding, the medium was changed, and the cells were stimulated with 100 ng/mL TNF-α and 20 ng/mL IFN-γ for 16–18 h. On the day of the assay, cells were washed with migration medium (serum-free RPMI medium supplemented with 0.1% BSA) to remove residual cytokines and starved for at least 1 h at 37 °C in migration medium. PBMC were starved for at least 1.5 h in migration medium before addition to the EC. For S1P and lifitegrast-treated samples, the PBMC were preincubated for at least 1.5 h at 37 °C with the ligands before addition to the EC. Pepitem and other peptides were added onto the EC monolayer and preincubated for 15–30 min at 37 °C before the addition of the PBMC. 200,000 PBMC per well were added directly on top of the EC prestimulated with pepitem or other peptides to reach a final volume of 150 μL in the donor compartments. The receiver compartments of the wells were filled with 600 μL RPMI with 20% FBS. After 4 h of migration at 37 °C, the receiver compartment with the migrated cells was collected. The migrated cells were stained with the indicated antibodies: CD3-APC (clone: OKT3, lot: B400127), CD4-PE (clone: OKT4. lot: B379180), CD8-FITC (clone: HIT8a, lot: B370193) from Biolegend and CD3-VioGreen (clone: REA613, lot: 5240502518), CD45RO-FITC (clone: REA611, lot: 5240502519), CD4-PerCP-Vio700 (clone: REA623, lot: 5240506702), CXCR3 PE-Vio615 (clone: REA232, lot: 5240506722), CD196-APC (clone: REA190, lot: 5240506717), CD8-APC-Vio770 (clone: REA734, lot: 5240303993) and CD45RO-PEVio616 (clone: REA611, lot: 5231102514) from Miltenyi Biotec (Bergisch Gladbach, Germany) and counted using precision counting beads (Biolegend) on a CytoflexS flow cytometer (BeckmanCoulter). Data was analyzed using CytExpert (Version 2.4). T cells were gated as CD3^+ cells, T cell subsets were gated as CD4^+ (CD3^+, CD4^+), CD8^+ (CD3^+, CD8^+), memory CD4^+ (CD3^+, CD4^+, CD45RO^+), memory CD8^+ (CD3^+, CD8^+, CD45RO^+) and Th1 cells (CD3^+, CD4^+, CXCR3^+, CCR6^–).
(§2) Data were analyzed using GraphPad Prism software. EC50 values were calculated by three-parameter nonlinear regression analysis. For this, the data points were normalized to the number of migrated cells in untreated (buffer) control samples (100%), and the regression was fitted with the top constraint to 100 and the slope fixed to 1. Statistical significance is indicated in graphs as n.s. not significant, * p < 0.05; ** p < 0.01; *** p < 0.001. The statistical tests used are indicated in the respective figure captions.

The subject of data set [1] is memory CD4+ cells (CD3+, CD4+, CD45RO+). It is filed as cell-based, human. The following applies: normalized to untreated control, mean ± SEM of 4-6 experiments. How it is done:
as §1, §2

Data set [2] has as its system memory CD8+ cells (CD3+, CD8+, CD45RO+). The class given is cell-based, human. As to conditions: normalized to untreated control, mean ± SEM of 4-6 experiments. On the procedure: as §1, §2
Data set [3] deals with CD8+ lymphocytes (CD3+, CD8+). The class given is cell-based, human. As to conditions: normalized to untreated control, mean ± SEM of 4-6 experiments. On the procedure:
as §1, §2

The subject of data set [4] is CD4+ lymphocytes (CD3+, CD4+). The class given is cell-based, human. The following applies: normalized to untreated control, mean ± SEM of 4-6 experiments. On the procedure: as §1, §2
A further data set in a line: Serum stability assay. It is filed as in vitro ADME. The following applies: human serum of healthy donors, lipids removed by centrifugation, 37 °C, peptide 30-60 μM from 10-fold stock in PBS, followed over 48 h, urea/TFA quench, analytical RP-HPLC peak area vs time 0, one-phase decay fit, mean ± SD, n = 2 (pepitem n = 5); for half-life: read-out: Serum t 1/2 (converted). How it is done: Stability of peptides in human serum was measured similarly to that previously described. In short, fresh blood from healthy donors was collected in serum collection tubes (Clot Activator Tube, Becton Dickinson, Plymouth, United Kingdom, […]) and incubated at 4 °C for 2 h to allow blood clotting. The serum was separated by centrifugation at 1000 × g for 10 min. To remove lipids from the serum, an additional centrifugation step was performed at 15,000 × g for 15 min at 4 °C, after which the serum was used for the stability assays. For this, the serum was prewarmed for 10 min at 37 °C before the addition of the test compounds. Peptides were prepared at a 10-fold concentration in PBS and diluted to a final concentration between 60 and 30 μM with the serum. The serum-peptide reaction mix was incubated at 37 °C, and 40 μL aliquots were taken at the indicated time points. To stop the reaction, samples were mixed with 40 μL of 6 M urea for 10 min on ice, followed by precipitation of serum proteins by the addition of 40 μL of 20% TFA and incubation for at least 10 min on ice. The precipitate was pelleted at 15,000 × g for 15 min, and 90 μL of the supernatant was freeze-dried. The dry material was resuspended in HPLC solvent A (0.1% TFA in ddH2O). Peptide quantification was performed using analytical HPLC. The remaining peptide relative to the starting point (time point 0) was calculated by peak integration to determine the area under the peak at the designated time points and further calculated in comparison to time point 0 min, which was set as 100%. To calculate the half-life of the peptides in human serum, data points were fitted with a one-phase decay equation.

The mark [5] stands for this setting: Homo sapiens, Lymphocyte, PBMC preincubated with ligand for 1.5 h, then added onto EC monolayer, 4 h migration, mean ± SD, 3 or more experiments, read-out: EC50, inhibition of CD3+ cell migration.

Like-named read-outs stand apart in the source and are kept apart here. Positions of bridges follow the written chain, without caps; N, C: chain ends. Non-standard residues stand in square brackets, D forms with d. Residues, ends and D or L forms follow the SMILES beside them. No end group written: not given here. Nle = CCCC[C@H](N)C(=O)O A value given as a limit tells only on which side of the number the result lay.

As to `CCCCCCCCCCCCC/C=C/[C@@H](O)[C@@H](N)COP(=O)(O)O` [Sphingosine-1-phosphate, reference compound], the EC50 with CD3+ lymphocytes (setting [5]) amounted to 54.6 ± 49.1 nM.
As for `CCCC[C@@H]1NC(=O)[C@H](C(C)C)NC(=O)[C@H](CCCCN)NC(=O)[C@@H](NC(=O)[C@H](CCC(N)=O)NC(=O)[C@H](CCC(=O)O)NC(C)=O)CSSC[C@@H](C(=O)N[C@@H](CCC(=O)O)C(=O)N[C@@H](CCCCN)C(N)=O)NC(=O)[C@H](CC(N)=O)NC(=O)[C@H](CC(=O)O)NC(=O)[C@H](CC(C)C)NC(=O)[C@@H]2CSSC[C@H](NC1=O)C(=O)N[C@@H](Cc1ccc(O)cc1)C(=O)N[C@@H](C)C(=O)N[C@@H](CCC(N)=O)C(=O)N[C@@H](CCCNC(=N)N)C(=O)N[C@@H](Cc1c[nH]cn1)C(=O)N[C@@H](CO)C(=O)N[C@@H](CO)C(=O)N1CCC[C@H]1C(=O)N[C@@H](CCC(=O)O)C(=O)N[C@@H](CC(C)C)C(=O)N[C@@H](CC(C)C)C(=O)N[C@@H](CCCNC(=N)N)C(=O)N[C@@H](CCCNC(=N)N)C(=O)N2` [VhTI variant, reference compound] (Ac-EQCKV[Nle]CYAQRHSSPELLRRCLDNCEK-NH2; disulfide 3-25, 7-21), the “% Inhibition of cell migration compared to control, Memory CD4+” value in data set [1] (0.1 μM) is given as “–3.5 ± 2.4%”; in data set [1] (1 μM), “–11.6 ± 13.2%”. Also, the “% Inhibition of cell migration compared to control, Memory CD8+” value in data set [2] (0.1 μM) is listed as 4.7 ± 7.4%; in data set [2] (1 μM), “–11.6 ± 7.2%”. Besides, the entries for the “% Inhibition of cell migration compared to control, CD8+” value in data set [3] (0.1 μM) and in data set [3] (1 μM) were 1.6 ± 8.5% and “–2.8 ± 15.8%”, respectively. The entries for the “% Inhibition of cell migration compared to control, CD4+” value in data set [4] (0.1 μM) and in data set [4] (1 μM) were “–7.8 ± 9.4%” and “–6.7 ± 7.0%”, respectively. The entries for the “% Inhibition of cell migration compared to control, CD3+” value with CD3+ lymphocytes (0.1 μM) and with CD3+ lymphocytes (1 μM) were “–3.9 ± 7.0%” and “–5.2 ± 10.7%”, respectively. Besides, the “effects on T-lymphocyte migration (in words)” value in the data set on CD3+ lymphocytes (two concentrations (0.1 and 1 μM), equal to untreated control) is given as “no effects”. In addition, the half-life in the data set “Serum stability assay” was 15.4 ± 12.9 h.
For the molecule `CCCC[C@@H]1NC(=O)[C@H](C(C)C)NC(=O)[C@H](CCCCN)NC(=O)[C@@H](NC(=O)[C@H](CCC(N)=O)NC(=O)[C@H](CCC(=O)O)NC(C)=O)CSSC[C@@H](C(=O)N[C@@H](CCC(=O)O)C(=O)N[C@@H](CCCCN)C(N)=O)NC(=O)[C@H](CC(N)=O)NC(=O)[C@H](CC(=O)O)NC(=O)[C@H](CC(C)C)NC(=O)[C@@H]2CSSC[C@H](NC1=O)C(=O)N[C@@H](Cc1ccc(O)cc1)C(=O)N[C@@H](C)C(=O)N[C@@H](CCC(N)=O)C(=O)NCC(=O)N[C@@H](C)C(=O)N[C@@H](CCC(=O)O)C(=O)N[C@@H](CC(C)C)C(=O)N[C@@H](CO)C(=O)N1CCC[C@H]1C(=O)N[C@@H](CCC(=O)O)C(=O)N[C@@H](CC(C)C)C(=O)N[C@@H](CC(C)C)C(=O)N[C@@H](CCCNC(=N)N)C(=O)N[C@@H](CCCNC(=N)N)C(=O)N2` [VhTI-pep 1] (Ac-EQCKV[Nle]CYAQGAELSPELLRRCLDNCEK-NH2; disulfide 3-26, 7-22), the “% Inhibition of cell migration compared to control, Memory CD4+” value came to 15.1 ± 14.2% in data set [1] (0.1 μM) and 39.5 ± 11.6% in data set [1] (1 μM). Further, the “% Inhibition of cell migration compared to control, Memory CD8+” value in data set [2] (0.1 μM) turned out to be 21.2 ± 3.1%; in data set [2] (1 μM) it was 29.6 ± 6.7%. The “% Inhibition of cell migration compared to control, CD8+” value was found to be 34.6 ± 8.0% in data set [3] (0.1 μM) and 38.4 ± 2.4% in data set [3] (1 μM). The figures for the “% Inhibition of cell migration compared to control, CD4+” value in data set [4] (0.1 μM) and in data set [4] (1 μM) were 23.5 ± 9.7% and 30.3 ± 14.7%, respectively. Further, the “% Inhibition of cell migration compared to control, CD3+” value in the data set on CD3+ lymphocytes (0.1 μM) is on record as 25.6 ± 6.4%; in the data set on CD3+ lymphocytes (1 μM) it was 33.4 ± 8.5%. Moreover, the half-life in “Serum stability assay” is above 48 h.
With `CS(=O)(=O)c1cccc(C[C@H](NC(=O)c2c(Cl)cc3c(c2Cl)CCN(C(=O)c2ccc4ccoc4c2)C3)C(=O)O)c1` [lifitegrast, reference compound], the EC50 with CD3+ lymphocytes (setting [5]) stood at 2.2 ± 3.6 nM.
For the molecule “SVTEQGAELSNEER [Pepitem, reference compound]”, in the data set with CD3+ lymphocytes (4 h), the EC50 was 6 ± 6.4 nM. Moreover, in “Serum stability assay”, the “Serum t 1/2” value stood at 3.1 ± 0.5 h and the half-life is around 3 h.
